Structures can show the parent of a compound that is named as a salt.
Tests used:
various organisms = assay: Microdilution checkerboard method, combination with ciprofloxacin (MIC and FIC); assay type: cell-based; settings: single agent
[1] = tested on: super sensitive Gram-negative Escherichia coli (E. coli) BAS849; assay: Antibacterial activity, microbroth dilution MIC, E. coli BAS849; assay type: cell-based; settings: Escherichia coli; E. coli BAS849, microbroth dilution; read-out: MIC, BAS849
[2] = tested on: control Gram-negative E. coli 25922 strain; assay: Antibacterial activity, microbroth dilution MIC, E. coli 25922; assay type: cell-based, Escherichia coli; settings: Escherichia coli; E. coli 25922, microbroth dilution; read-out: MIC, 25922
[3] = tested on: Gram-positive Staphylococcus aureus (S. aureus) 29213; assay: Antibacterial activity, microbroth dilution MIC, S. aureus 29213; assay type: cell-based; settings: Staphylococcus aureus; S. aureus 29213, microbroth dilution; read-out: MIC, 29213
[4] = tested on: quinolone resistant E. coli LZ3111; assay: Antibacterial activity, MIC, quinolone resistant E. coli LZ3111; assay type: cell-based, Escherichia coli; settings: Escherichia coli, read-out: MIC, LZ3111
Source text: (§1) The antibacterial activity from a microbroth dilution method may be presented as the minimum inhibitory concentration (MIC in […]). The MIC value is the lowest concentration of a drug which prevents macroscopically visible bacterial growth under test conditions.
Mutations in these regions are known to confer a high level resistance to the quinolone class of antibiotics.

[5] = tested on: E. coli ELZ4251 (MDR clinical isolate); assay: Antibacterial activity, MIC, MDR E. coli ELZ4251; assay type: cell-based, Escherichia coli; settings: E. coli ELZ4251, MDR clinical isolate; for MIC: Escherichia coli, read-out: MIC ELZ4251
[6] = tested on: Acinetobacter baumannii (A. baumannii) BAA747; assay: Antibacterial activity, MIC, A. baumannii BAA747; assay type: cell-based; settings: Acinetobacter baumannii; A. baumannii BAA747; read-out: MIC BAA747
[7] = tested on: Klebsiella pneumoniae (K. pneumoniae) 35657; assay: Antibacterial activity, MIC, K. pneumoniae 35657; assay type: cell-based; settings: Klebsiella pneumoniae
[8] = tested on: resistant A. baumannii MXX2240 (MDR clinical isolate); assay: Antibacterial activity, MIC, resistant A. baumannii MXX2240; assay type: cell-based, Acinetobacter baumannii; settings: resistant A. baumannii MMX2240, MDR clinical isolate; for MIC: Acinetobacter baumannii, read-out: MIC MMX2240
[9] = tested on: resistant K. pneumoniae MXX1232 (MDR clinical isolate); assay: Antibacterial activity, MIC, resistant K. pneumoniae MXX1232; assay type: cell-based, Klebsiella pneumoniae; settings: Klebsiella pneumoniae; resistant K. pneumoniae MMX1232, MDR clinical isolate; read-out: MIC MMX1232
[10] = tested on: Pseudomonas aeruginosa (P. aeruginosa) 27853; assay: Antibacterial activity, MIC, P. aeruginosa 27853; assay type: cell-based; settings: P. aeruginosa 27853; for MIC: Pseudomonas aeruginosa, read-out: MIC 27853
Source text: as §1
Antibacterial activity of test compounds against the Gram-negative bacterium Pseudomonas aeruginosa (P. aeruginosa) 27853 is shown in Table 5.

[11] = tested on: Moraxella catarrhalis (M. catarrhalis) 25238; assay: Antibacterial activity, MIC, M. catarrhalis 25238; assay type: cell-based; settings: M. catarrhalis 25238; for MIC: Moraxella catarrhalis, read-out: MIC 25238
[12] = tested on: E. coli ELZ4000 (MDR clinical isolate); assay: Antibacterial activity, MIC, MDR E. coli ELZ4000; assay type: cell-based, Escherichia coli; settings: Escherichia coli; E. coli ELZ4000, MDR clinical isolate; read-out: MIC ELZ4000
[13] = tested on: Haemophilus influenzae (H. influenzae) 49247; assay: Antibacterial activity, MIC, H. influenzae 49247; assay type: cell-based; settings: Haemophilus influenzae; H. influenzae 49247; read-out: MIC 49247
In short: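 A microbroth dilution method gave the minimum inhibitory concentration for each compound against H. influenzae 49247, a Gram-negative bacterium. MIC means the smallest concentration of drug at which no macroscopically visible bacterial growth appears under the conditions of the test.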

[14] = tested on: Neisseria meningitidis (N. meningitidis) 13090; assay: Antibacterial activity, MIC, N. meningitidis 13090; assay type: cell-based; settings: Neisseria meningitidis; N. meningitidis 13090; read-out: MIC 13090
[15] = Acinetobacter baumannii, A. baumannii (MDR)
[16] = Acinetobacter baumannii, BAA747, A. baumannii BAA747
[17] = Escherichia coli, E. coli 25922
[18] = Klebsiella pneumoniae, K. pneumoniae 35657
[19] = Pseudomonas aeruginosa, P. aeruginosa 27853
[20] = Staphylococcus aureus, S. aureus 29213
[21] = Staphylococcus aureus, S. aureus (MDR)

| Structure (SMILES) | MIC (various organisms; [15]) [µg/mL] | MIC (various organisms; [16]) [µg/mL] | MIC (various organisms; Escherichia coli, E. coli 3111) [µg/mL] | MIC (various organisms; [17]) [µg/mL] | MIC (various organisms; [18]) [µg/mL] | MIC (various organisms; [19]) [µg/mL] | MIC [1] [µg/mL] | MIC [2] [µg/mL] | MIC [3] [µg/mL] | MIC [4] [µg/mL] | MIC [6] [µg/mL] | MIC [7] [µg/mL] | MIC [9] [µg/mL] | MIC [12] [µg/mL] | MIC [5] [µg/mL] | MIC [8] [µg/mL] | MIC [10] [µg/mL] | MIC [13] [µg/mL] | MIC [11] [µg/mL] | MIC [14] [µg/mL] | other results |
| --- | --- | --- | --- | --- | --- | --- | --- | --- | --- | --- | --- | --- | --- | --- | --- | --- | --- | --- | --- | --- | --- |
| O=C(O)c1cn(C2CC2)c2cc(N3CCNCC3)c(F)cc2c1=O [Cipro, ciprofloxacin, reference compound] | 125 | 0.098 | 125 | 0.013 | 0.01 | 0.2 |  |  |  |  |  |  |  |  |  |  |  |  |  |  | MIC (various organisms; [20]): 0.39 µg/mL; MIC (various organisms; [21]): 31.2 µg/mL |
| CCc1c(-c2ccc(N3C[C@@H]4[C@@H](N)[C@@H]4C3)cc2)[nH]c(=O)c(C(=O)O)c1O [Cpd 269, 6-{4-[(1R,5S,6s)-6-amino-3-azabicyclo[3.1.0]hex-3-yl]phenyl}-5-ethyl-4-hydroxy-2-oxo-1,2-dihydropyridine-3-carboxylic acid hydrochloride] | 12.5 | 0.39 | 3.1 | 0.19 | 0.39 | 1.6 | < 1 | < 1 | 3.5 to 12.5 | 3.5 to 12.5 | < 1 | < 1 | 12.5 to 150 |  |  |  |  |  |  |  | MIC ELZ4251 ([5]; hydrochloride): * (an MIC value between >12.5 μg/mL and ≦150 μg/mL is indicated by a single star (*)); MIC MMX2240 ([8]; hydrochloride): ** (an MIC value between >3.5 μg/mL and ≦12.5 μg/mL is indicated by two stars (**)); MIC 27853 ([10]; hydrochloride): *** (an MIC value between >1.0 μg/mL and ≦3.5 μg/mL is indicated by three stars (***)); MIC 25238 ([11]; hydrochloride): **** (an MIC value of ≦1.0 μg/mL is indicated by four stars (****)); MIC (various organisms; [20]): 3.12 µg/mL; MIC (various organisms; [21]): 6.2 µg/mL |
| CCc1c(-c2ccc(N3CCC(N(C)C)C3)cc2)[nH]c(=O)c(C(=O)O)c1O.Cl (centres unmarked) [Cpd 275, 6-{4-[3-(dimethylamino)pyrrolidin-1-yl]phenyl}-5-ethyl-4-hydroxy-2-oxo-1,2-dihydropyridine-3-carboxylic acid hydrochloride] |  |  |  |  |  |  | < 1 | < 1 | 12.5 to 150 | 1 to 3.5 | 1 to 3.5 | 1 to 3.5 | 12.5 to 150 | 3.5 to 12.5 | 1 to 3.5 | 1 to 3.5 | 3.5 to 12.5 | < 1 | < 1 | < 1 |  |
| CCc1c(-c2ccc(N3CC4CC4(N)C3)cc2)[nH]c(=O)c(C(=O)O)c1O.Cl (centres unmarked) [Cpd 277, 6-[4-(1-amino-3-azabicyclo[3.1.0]hex-3-yl)phenyl]-5-ethyl-4-hydroxy-2-oxo-1,2-dihydropyridine-3-carboxylic acid hydrochloride] |  |  |  |  |  |  | < 1 | 1 to 3.5 | 3.5 to 12.5 | 3.5 to 12.5 | 3.5 to 12.5 | 1 to 3.5 | 12.5 to 150 | 12.5 to 150 | 12.5 to 150 | 12.5 to 150 | 12.5 to 150 | 1 to 3.5 | 1 to 3.5 | < 1 |  |
| CCc1c(-c2ccc(N3CCC(C(C)(C)N)C3)cc2)[nH]c(=O)c(C(=O)O)c1O.Cl (centres unmarked) [Cpd 279, 6-{4-[3-(2-aminopropan-2-yl)pyrrolidin-1-yl]phenyl}-5-ethyl-4-hydroxy-2-oxo-1,2-dihydropyridine-3-carboxylic acid hydrochloride] |  |  |  |  |  |  | < 1 | 1 to 3.5 | 12.5 to 150 | < 1 | 12.5 to 150 | 3.5 to 12.5 | 12.5 to 150 | 3.5 to 12.5 | 1 to 3.5 | 3.5 to 12.5 | 12.5 to 150 | 3.5 to 12.5 | 3.5 to 12.5 | 12.5 to 150 |  |
| CCc1c(-c2ccc(N3C[C@H]4CCC[C@@H](NC)[C@H]4C3)cc2)[nH]c(=O)c(C(=O)O)c1O.Cl [Cpd 296, 5-ethyl-4-hydroxy-6-{4-[(3aR,4R,7aS)-4-(methylamino)octahydro-2H-isoindol-2-yl]phenyl}-2-oxo-1,2-dihydropyridine-3-carboxylic acid hydrochloride] |  |  |  |  |  |  | < 1 | 1 to 3.5 | 1 to 3.5 | < 1 | 12.5 to 150 | 1 to 3.5 | 12.5 to 150 | 12.5 to 150 | 3.5 to 12.5 | 3.5 to 12.5 | 12.5 to 150 | 3.5 to 12.5 | 3.5 to 12.5 | < 1 |  |
